Patent US11345702B1 (Myoforte Therapeutics, Inc., priority 2020, dated 2022)

Target: 15-PGDH/HPGD (Homo sapiens (Human), UniProt P15428)
Experiment: hPGDH inhibitor screening biochemical assay
Details: read-out: hPGDH: Average IC50
In short: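 Ten-point dose-response inhibition of 15-PGDH measured by fluorescence (340/485 nm) after 10 min at room temperature with PGE2 (15 μM) and NAD+ (0.25 mM), following 10 min enzyme (10 nM)–compound pre-incubation at 37 °C. Buffer: 50 mM Tris-HCl pH 7.5, 0.01% Tween 20. Percent inhibition relative to 1% DMSO; four-parameter IC50.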

15-PGDH/HPGD, sequence (P15428 whole entry): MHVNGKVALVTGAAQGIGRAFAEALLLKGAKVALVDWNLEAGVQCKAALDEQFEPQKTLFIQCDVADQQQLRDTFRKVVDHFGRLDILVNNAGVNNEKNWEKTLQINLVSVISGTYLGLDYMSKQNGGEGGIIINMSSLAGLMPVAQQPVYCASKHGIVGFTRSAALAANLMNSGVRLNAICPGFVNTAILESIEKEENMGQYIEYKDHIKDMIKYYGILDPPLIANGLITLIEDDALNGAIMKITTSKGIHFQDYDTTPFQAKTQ

SMILES | IC50 [nM]
O=C(Nc1cc(C2CC2)[nH]n1)c1cncc(-n2ccc3cc(C(=O)N4CCC(F)(F)CC4)cnc32)c1 [MF-DH-501, N-(5-cyclopropyl-1H-pyrazol-3-yl)-5-(5-(4,4-difluoropiperidine-1-carbonyl)-1H-pyrrolo[2,3-b]pyridin-1-yl)nicotinamide] | < 100
N#Cc1cc(-n2ccc3cc(C(=O)N4CCC(F)(F)CC4)cnc32)cnc1O [MF-DH-502] | < 100
CC(C)(C#N)c1cncc(-n2ccc3cc(C(=O)N4CCC(F)(F)CC4)cnc32)c1 [MF-DH-509, 2-(5-(5-(4,4-difluoropiperidine-1-carbonyl)-1H-pyrrolo[2,3-b]pyridin-1-yl)pyridin-3-yl)-2-methylpropanenitrile] | < 100
O=C(c1cnc2c(ccn2-c2cccc(C(=O)N3CC[S+]([O-])C3)c2)c1)N1CCC(F)(F)CC1 (centres unmarked) [MF-DH-527, (4,4-difluoropiperidin-1-yl)(1-(3-(1-oxidothiazolidine-3-carbonyl)phenyl)-1H-pyrrolo[2,3-b]pyridin-5-yl)methanone] | < 100
CC(C)(O)CCC#Cc1nc2cc(C(=O)N3CCC(F)(F)CC3)cnc2n1-c1ccc(C#N)cc1 [MF-DH-544, 4-(6-(4,4-difluoropiperidine-1-carbonyl)-2-(5-hydroxy-5-methylhex-1-yn-1-yl)-3H-imidazo[4,5-b]pyridin-3-yl)benzonitrile] | 100 to 1000
O=C(c1ccn2c(-c3cccc(Cl)c3)cnc2c1)N1CCCCC1 [MF-PGDH-007, (3-(3-chlorophenyl)imidazo[1,2-a]pyridin-7-yl)(piperidin-1-yl)methanone] | < 100
COc1ccc(-n2cnc3cc(C(=O)N4CCCCC4)ccc32)cc1 [MF-PGDH-008] | < 100
O=C(c1cnc2c(ccn2-c2cccc(Cl)c2)c1)N1CCCCC1 [MF-PGDH-014] | < 100
O=C(c1ccc2c(c1)ncn2-c1cccc(Cl)c1)N1CCCCCC1 [MF-PGDH-016] | < 100
O=C(c1ccc2c(c1)ncn2-c1cccc(Cl)c1)N1CC2CCC(C2)C1 [MF-PGDH-018] | < 100
O=C(c1ccc2c(c1)ncn2-c1cccc(Cl)c1)N1CCC(F)(F)CC1 [MF-PGDH-026] | < 100
CCOC(=O)CCc1nc2cc(C(=O)N3CCCCC3)ccc2n1-c1cccc(Cl)c1 [MF-PGDH-033, ethyl 3-(1-(3-chlorophenyl)-5-(piperidine-1-carbonyl)-1H-benzo[d]imidazol-2-yl)propanoate] | < 100
O=C(c1ccc(COc2ccccc2Br)cc1)N1CCCCC1 [MF-PGDH-036] | < 100
O=C(c1ccc(COc2ccccc2Cl)cc1)N1CCCCC1 [MF-PGDH-037] | < 100
COc1cc(C(=O)N2CCCCC2)ccc1COc1ccccc1Cl [MF-PGDH-038] | < 100
O=C(c1ccc(CS(=O)(=O)c2ccccc2Cl)cc1)N1CCCCC1 [MF-PGDH-040, (4-(((2-chlorophenyl)sulfonyl)methyl)phenyl)(piperidin-1-yl)methanone] | 100 to 1000
COc1ccccc1C(=O)Nc1ccc(C(=O)N2CCCCC2)cc1 [MF-PGDH-041] | < 100
COc1ccccc1NC(=O)c1ccc(C(=O)N2CCCCC2)cc1 [MF-PGDH-043, N-(2-methoxyphenyl)-4-(piperidine-1-carbonyl) benzamide] | 100 to 1000
O=C(c1ccc2c(c1)ncn2-c1cccc(Cl)c1)N1CCC(F)(F)C1 [MF-PGDH-047] | ≥ 1000
O=C(c1ccc2c(-c3cccc(Cl)c3)c[nH]c2c1)N1CCCCC1 [MF-PGDH-053, (3-(3-chlorophenyl)-1H-indol-6-yl)(piperidin-1-yl)methanone] | < 100
Cn1cc(-c2cccc(Cl)c2)c2ccc(C(=O)N3CCCCC3)cc21 [MF-PGDH-054, (3-(3-chlorophenyl)-1-methyl-1H-indol-6-yl)(piperidin-1-yl)methanone] | < 100
O=C(c1ccc2c(c1)CCCN2c1cccc(Cl)c1)N1CCCCC1 [MF-PGDH-057, (1-(3-chlorophenyl)-1,2,3,4-tetrahydroquinolin-6-yl)(piperidin-1-yl)methanone] | < 100
O=C(c1ccc2c(c1)ncn2-c1ccc(O)c(Cl)c1)N1CCCCC1 [MF-PGDH-061, (1-(3-chloro-4-hydroxyphenyl)-1H-benzo[d]imidazol-5-yl)(piperidin-1-yl)methanone] | < 100
O=C(c1ccc2c(c1)ncn2-c1ccc2c(c1)OCO2)N1CCCCC1 [MF-PGDH-062] | < 100
O=C(NC1CC1)c1ccc2c(c1)ncn2-c1cccc(Cl)c1 [MF-PGDH-063] | 100 to 1000
O=C(Nc1ccccc1)c1ccc2c(c1)ncn2-c1cccc(Cl)c1 [MF-PGDH-065] | ≥ 1000
O=C(c1cnc2c(ccn2-c2ccncn2)c1)N1CCCCC1 [MF-PGDH-069] | < 100
O=C(c1cnc2c(ccn2-c2cncnc2)c1)N1CCCCC1 [MF-PGDH-070] | < 100
O=C(c1cnc2c(ccn2-c2c[nH]cn2)c1)N1CCCCC1 [MF-PGDH-075] | < 100

Second part, the molecule after the results:

IC50 [nM] | SMILES
< 100 | C[C@H]1CCCN(C(=O)c2cnc3c(ccn3-c3ccc(C(=O)O)cc3)c2)C1 [MF-DH-562, (S)-4-(5-(3-methylpiperidine-1-carbonyl)-1H-pyrrolo[2,3-b]pyridin-1-yl)benzoic acid]
< 100 | O=C(c1ccc2c(ccn2-c2cccc(Cl)c2)c1)N1CCCCC1 [MF-PGDH-004]
< 100 | O=C(c1ccc2c(c1)c(Cl)cn2-c1cccc(Cl)c1)N1CCCCC1 [MF-PGDH-005]
< 100 | O=C(c1ccc2c(cnn2-c2cccc(Cl)c2)c1)N1CCCCC1 [MF-PGDH-006, (1-(3-chlorophenyl)-1H-indazol-5-yl)(piperidin-1-yl)methanone]
< 100 | COc1ccc(-n2cnc3cc(C(=O)N4CCC(F)CC4)ccc32)cc1 [MF-PGDH-009]
< 100 | O=C(c1ccc2c(c1)nnn2-c1cccc(Cl)c1)N1CCCCC1 [MF-PGDH-011, (1-(3-chlorophenyl)-1H-benzo[d][1,2,3]triazol-5-yl)(piperidin-1-yl)methanone]
< 100 | O=C(c1cnc2c(-c3cccc(Cl)c3)cnn2c1)N1CCCCC1 [MF-PGDH-012, (3-(3-chlorophenyl)pyrazolo[1,5-a]pyrimidin-6-yl)(piperidin-1-yl)methanone]
< 100 | O=C(c1ccc2c(c1)ncn2-c1cccc(Cl)c1)N1CC2CCCC2C1 (centres unmarked) [MF-PGDH-015]
100 to 1000 | O=C(c1ccc2c(c1)ncn2-c1cccc(Cl)c1)N1CC2CC2C1 (centres unmarked) [MF-PGDH-017]
< 100 | O=C(c1ccc2c(c1)ncn2-c1cccc(Cl)c1)N1CC2(CCC2)C1 [MF-PGDH-019]
100 to 1000 | COc1ccc(-n2c(C3CC3)nc3cc(C(=O)N4CCCCC4)ccc32)cc1 [MF-PGDH-021]
< 100 | COc1ccc(-n2cnc3cc(C(=O)N4CCCCC4)ccc32)nc1 [MF-PGDH-022]
< 100 | O=C(c1ccc2c(c1)ncn2-c1cccc(Cl)c1)N1CCCCC1 [MF-PGDH-023]
< 100 | COc1ccc(-n2cnc3cc(C(=O)N4CCCCC4)ccc32)cc1Cl [MF-PGDH-024, (1-(3-chloro-4-methoxyphenyl)-1H-benzo[d]imidazol-5-yl)(piperidin-1-yl)methanone]
< 100 | CCOC(=O)c1nc2cc(C(=O)N3CCCCC3)ccc2n1-c1cccc(Cl)c1 [MF-PGDH-027, ethyl 1-(3-chlorophenyl)-5-(piperidine-1-carbonyl)-1H-benzo[d]imidazole-2-carboxylate]
< 100 | CCOC(=O)Cc1nc2cc(C(=O)N3CCCCC3)ccc2n1-c1cccc(Cl)c1 [MF-PGDH-030, ethyl 2-(1-(3-chlorophenyl)-5-(piperidine-1-carbonyl)-1H-benzo[d]imidazol-2-yl)acetate]
< 100 | O=C(O)CCc1nc2cc(C(=O)N3CCCCC3)ccc2n1-c1cccc(Cl)c1 [MF-PGDH-034, 3-(1-(3-chlorophenyl)-5-(piperidine-1-carbonyl)-1H-benzo[d]imidazol-2-yl)propanoic acid]

IC50 [nM] | SMILES
< 100 | NC(=O)CCc1nc2cc(C(=O)N3CCCCC3)ccc2n1-c1cccc(Cl)c1 [MF-PGDH-035, 3-(1-(3-chlorophenyl)-5-(piperidine-1-carbonyl)-1H-benzo[d]imidazol-2-yl)propanamide]
< 100 | O=C(c1ccc(CSc2ccccc2Cl)cc1)N1CCCCC1 [MF-PGDH-039]
≥ 1000 | COc1ccccc1C(=O)N(C)c1ccc(C(=O)N2CCCCC2)cc1 [MF-PGDH-042]
100 to 1000 | O=C(c1ccc(C[S+]([O-])c2ccccc2Cl)cc1)N1CCCCC1 (centres unmarked) [MF-PGDH-045, (4-(((2-chlorophenyl)sulfinyl)methyl)phenyl)(piperidin-1-yl)methanone]
100 to 1000 | O=C(c1ccc2c(c1)ncn2-c1cccc(Cl)c1)N1CCCC1 [MF-PGDH-046]
100 to 1000 | O=C(c1ccc2c(c1)ncn2-c1cccc(Cl)c1)N1CCC(F)C1 (centres unmarked) [MF-PGDH-048]
< 100 | O=C(c1ccc2c(c1)ncn2-c1cccc(Cl)c1)N1CCC(Cl)C1 (centres unmarked) [MF-PGDH-049]
≥ 1000 | O=C(c1ccc2c(c1)ncn2-c1cccc(Cl)c1)N1CCC(O)C1 (centres unmarked) [MF-PGDH-050]
100 to 1000 | O=C(c1ccc2c(c1)ncn2-c1cccc(Cl)c1)N1CCC(O)CC1 [MF-PGDH-052]
100 to 1000 | O=C(c1ccc2c(c1)CCC(=O)N2c1cccc(Cl)c1)N1CCCCC1 [MF-PGDH-058, 1-(3-chlorophenyl)-6-(piperidine-1-carbonyl)-3,4-dihydroquinolin-2(1H)-one]
≥ 1000 | CN(C(=O)c1ccc2c(c1)ncn2-c1cccc(Cl)c1)C1CC1 [MF-PGDH-064, 1-(3-chlorophenyl)-N-cyclopropyl-N-methyl-1H-benzo[d]imidazole-5-carboxamide]
< 100 | O=C(c1cnc2c(ccn2-c2ccccn2)c1)N1CCCCC1 [MF-PGDH-067]
< 100 | O=C(c1cnc2c(ccn2-c2cccnc2)c1)N1CCCCC1 [MF-PGDH-068]
< 100 | O=C(c1cnc2c(ccn2-c2cnccn2)c1)N1CCCCC1 [MF-PGDH-071]
100 to 1000 | CCn1cnc(-n2ccc3cc(C(=O)N4CCCCC4)cnc32)c1 [MF-PGDH-073]
< 100 | O=C(c1cnc2c(ccn2-c2cscn2)c1)N1CCCCC1 [MF-PGDH-074]
